The record followed here is patent publication US12150995B2, “IRAK degraders and uses thereof” (Kymera Therapeutics, Inc., priority 2020, dated 2024).

By DC50 is commonly meant the concentration giving 50% degradation. Read a low DC50 as degradation at low concentration.

Molecules are shown by their SMILES.

For this test, the target named is T1, IRAK4 (Homo sapiens, UniProt Q9NWZ3).
T1 construct: endogenous in cells; host or cells: OCI-LY10
T1 sequence (Q9NWZ3 1-460): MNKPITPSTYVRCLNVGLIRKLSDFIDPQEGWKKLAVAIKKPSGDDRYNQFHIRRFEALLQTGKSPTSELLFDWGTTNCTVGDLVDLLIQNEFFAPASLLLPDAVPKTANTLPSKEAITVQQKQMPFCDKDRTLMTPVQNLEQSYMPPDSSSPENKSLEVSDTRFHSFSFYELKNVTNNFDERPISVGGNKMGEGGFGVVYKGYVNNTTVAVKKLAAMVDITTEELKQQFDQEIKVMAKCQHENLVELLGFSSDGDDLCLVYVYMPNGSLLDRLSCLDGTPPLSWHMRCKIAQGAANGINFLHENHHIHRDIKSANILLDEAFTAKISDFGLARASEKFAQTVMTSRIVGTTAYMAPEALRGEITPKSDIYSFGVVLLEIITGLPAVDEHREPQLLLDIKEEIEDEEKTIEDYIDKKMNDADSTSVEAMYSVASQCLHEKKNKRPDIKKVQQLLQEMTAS
Kind of test: IRAK4 MSD Degradation in OCI-LY10. The format is cell-based. The settings on record: OCI-LY10 cells, Meso Scale Discovery, incubated 4 to 24 hours. Summed up: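 IRAK4 degradation was quantified by Meso Scale electrochemiluminescence (anti-IRAK4 capture and detection antibodies) in lysates of treated OCI-LY10 cells. Compounds were dosed at 8 concentrations (1:3 dilutions, top 1 to 10 μM) for 4 to 24 h; DC50 derived by three-parameter logistic fitting.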

`Cn1c(=O)n(C2CCC(=O)NC2=O)c2cc(Cl)cc(C3CCN(C[C@H]4CC[C@H](n5cc6cc(NC(=O)c7cccc(C(F)(F)F)n7)c(F)cc6n5)CC4)CC3)c21` (some centres unmarked) [I-72] showed a half-maximal degradation concentration (DC50) of 10 to 50 nM.

With `COc1cc2nn([C@H]3C[C@H](CN4CCC(c5ccc6c(N7CCC(=O)NC7=O)cncc6c5)CC4)C3)cc2cc1NC(=O)c1cccc(C(F)(F)F)n1` [I-119], the DC50 was > 200 nM.

As for `COc1cc2nn([C@H]3CC[C@H](CN4CCN(c5cccc6c(N7CCC(=O)NC7=O)cncc56)[C@H](C)C4)CC3)cc2cc1NC(=O)c1cccc(C(F)(F)F)n1` [I-256], the DC50 was < 10 nM.

On to `Cc1ccc2c(c1C1CCN(C[C@H]3CC[C@H](n4cc5cc(NC(=O)c6cccc(C(F)(F)F)n6)c(F)cc5n4)CC3)CC1)n(C)c(=O)n2C1CCC(=O)NC1=O` (some centres unmarked) [I-67], for which the DC50 was 10 to 50 nM.

For `COc1cc2nn([C@H]3CC[C@H](CN4CCN(c5cccc6c5n(C)c(=O)n6C5CCC(=O)NC5=O)CC4(C)C)CC3)cc2cc1NC(=O)c1cccc(C(F)(F)F)n1` (some centres unmarked) [I-306], the DC50 was 10 to 50 nM.

Regarding `COc1cc2nn([C@H]3CC[C@@H](CN4CCN(CC#Cc5cccc6c5n(C)c(=O)n6C5CCC(=O)NC5=O)CC4)CC3)cc2cc1NC(=O)c1cccc(C(F)(F)F)n1` (some centres unmarked) [I-327], the DC50 was < 10 nM.

On to `COc1cc2nc([C@H]3CC[C@H](CN4CCN(c5cccc6c(N7CCC(=O)NC7=O)cncc56)CC4)CC3)sc2cc1NC(=O)c1cccc(C(F)(F)F)n1` [I-223], for which the DC50 lay within 10 to 50 nM.

Take `COc1cc2nc([C@H]3CC[C@H](CN4CCC5(CC4)CC(CCNc4cccc6c4C(=O)N(C4CCC(=O)NC4=O)C6=O)C5)CC3)oc2cc1NC(=O)c1cnn2cccnc12` (some centres unmarked) [I-7]: the DC50 is > 200 nM.

As to `CC(C)c1cc2nn([C@H]3CC[C@H](CN4CCN(c5cccc6c5n(C)c(=O)n6C5CCC(=O)NC5=O)CC4)CC3)cc2cc1NC(=O)c1cccc(C(F)(F)F)n1` (some centres unmarked) [I-397], the DC50 was < 10 nM.

For `COc1cc(NC(=O)c2cccc(C(F)(F)F)n2)cc2cn([C@H]3CC[C@H](CN4CCN(c5cccc6c5n(C)c(=O)n6C5CCC(=O)NC5=O)CC4)CC3)nc12` (some centres unmarked) [I-218], the 50% degradation concentration (DC50) was < 10 nM.

As to `CC(C)Nc1cc(-n2ccc3cc(C#N)cnc32)ncc1C(=O)NC[C@H]1CC[C@H](CN(C)C2CCN(c3cccc4c3n(C)c(=O)n4C3CCC(=O)NC3=O)CC2)CC1` (some centres unmarked) [I-105], the DC50 fell in the range of 50 to 100 nM.

Take `CC(=O)c1cc2nn([C@H]3CC[C@H](CN4CCN(c5cccc6c5n(C)c(=O)n6C5CCC(=O)NC5=O)CC4)CC3)cc2cc1NC(=O)c1cccc(C(F)(F)F)n1` (some centres unmarked) [I-412]: the DC50 was < 10 nM.

As for `COc1cc2nc([C@H]3CC[C@H](CN(C)CCCCNc4cccc5c4C(=O)N(C4CCC(=O)NC4=O)C5=O)CC3)sc2cc1NC(=O)c1cncc(C#N)c1` (some centres unmarked) [I-456], the DC50 is > 200 nM.

On to `CC(C)(O)c1cc2nn([C@H]3CC[C@H](CN4CCC(c5ccc6c(N7CCC(=O)NC7=O)cncc6c5)CC4)CC3)cc2cc1NC(=O)c1cccc(C(F)(F)F)n1` [I-64], for which the DC50 is < 10 nM.

Turning to `COc1cc2nn([C@H]3CC[C@H](CN4CCN(c5cccc6c5n(C)c(=O)n6C5CCC(=O)NC5=O)C[C@H]4C)CC3)cc2cc1NC(=O)c1cccc(C(F)(F)F)n1` (some centres unmarked) [I-243], the DC50 is < 10 nM.

Regarding `Cn1c(=O)n(C2CCC(=O)NC2=O)c2cccc(C3CCN(C[C@H]4CC[C@H](c5cc6cc(NC(=O)c7cccc(C(F)(F)F)n7)ccn6n5)CC4)CC3)c21` (some centres unmarked) [I-242], the DC50 is < 10 nM.

As for `CC(C)(O)c1cc2nc([C@H]3CC[C@H](CN4CCN(CCNc5cccc6c5C(=O)N(C5CCC(=O)NC5=O)C6=O)CC4)CC3)sc2cc1NC(=O)c1cncc(C#N)c1` (some centres unmarked) [I-453], the DC50 was 100 to 200 nM.

In the case of `Cn1c(=O)n(C2CCC(=O)NC2=O)c2cccc(C3CCN(C[C@H]4CC[C@H](n5cc6cc(NC(=O)c7cnn8cc(C#N)cnc78)ccc6n5)CC4)CC3)c21` (some centres unmarked) [I-95], the DC50 was < 10 nM.

Regarding `COc1cc2nn([C@H]3CC[C@H](CN4CCCN(c5cccc6c5n(C)c(=O)n6C5CCC(=O)NC5=O)CC4)CC3)cc2cc1NC(=O)c1cccc(C(F)(F)F)n1` (some centres unmarked) [I-255], the 50% degradation concentration (DC50) is < 10 nM.

In the case of `CN(CCCO[C@H]1C[C@@H](Nc2cccc3c2C(=O)N(C2CCC(=O)NC2=O)C3=O)C1)C[C@H]1CC[C@H](n2cc3cc(NC(=O)c4cccc(C(F)(F)F)n4)c(C(C)(C)O)cc3n2)CC1` (some centres unmarked) [I-464], the DC50 fell in the range of 10 to 50 nM.

In the case of `Cn1c(=O)n(C2CCC(=O)NC2=O)c2cccc(C3CCN(C[C@H]4CC[C@H](n5cc6cc(NC(=O)n7ccc8cc(C#N)cnc87)ccc6n5)CC4)CC3)c21` (some centres unmarked) [I-129], the half-maximal degradation concentration (DC50) is < 10 nM.

`CC(C)Nc1cc(-n2ccc3cc(C#N)cnc32)ncc1C(=O)NC[C@H]1CC[C@H](CN(C)C2CCN(c3cccc4c3n(C)c(=O)n4C3CCC(=O)NC3=O)CC2)CC1` (some centres unmarked) [I-84] showed a DC50 of 50 to 100 nM.

Consider `COc1cc2nn([C@H]3CC[C@H](CN4CCC(O[C@H]5C[C@H](c6cccc7c6n(C)c(=O)n7C6CCC(=O)NC6=O)C5)CC4)CC3)cc2cc1NC(=O)c1cccc(C(F)(F)F)n1` (some centres unmarked) [I-386], for which the 50% degradation concentration (DC50) fell in the range of 10 to 50 nM.

In the case of `Cn1c(=O)n(C2CCC(=O)NC2=O)c2ccc(Cl)c(C3CCN(C[C@H]4C[C@H](n5cc6cc(NC(=O)c7cccc(C(F)(F)F)n7)ncc6n5)C4)CC3)c21` (some centres unmarked) [I-149], the DC50 lay within 100 to 200 nM.

As for `CC(C)Nc1c(C(=O)N[C@H]2CC[C@H](CN3CCN(c4cccc5c4n(C)c(=O)n5C4CCC(=O)NC4=O)CC3)CC2)cnc2c1Oc1cc(C#N)ccc1O2` (some centres unmarked) [I-407], the DC50 was < 10 nM.

Regarding `Cn1c(=O)n(C2CCC(=O)NC2=O)c2ccc(F)c(C3CCN(C[C@H]4CC[C@H](n5cc6cc(NC(=O)c7cccc(C(F)(F)F)n7)ncc6n5)CC4)CC3)c21` (some centres unmarked) [I-82], the DC50 is < 10 nM.

Regarding `COc1cc2nn([C@H]3CC[C@H](CN4C5CCC4CN(c4cccc6c4n(C)c(=O)n6C4CCC(=O)NC4=O)C5)CC3)cc2cc1NC(=O)c1cncc(C#N)c1` (some centres unmarked) [I-262], the half-maximal degradation concentration (DC50) is < 10 nM.

Turning to `Cc1ccc2c(c1C1CCN(C[C@H]3CC[C@H](n4cc5cc(NC(=O)c6cccc(C(F)(F)F)n6)ncc5n4)CC3)CC1)n(C)c(=O)n2C1CCC(=O)N(C)C1=O` (some centres unmarked) [I-162], the DC50 was > 200 nM.

`COc1cc2nn([C@H]3CC[C@H](CN4CCC(c5cccc6c5n(C)c(=O)n6C5CCC(=O)NC5=O)CC4)CC3)cc2cc1NC(=O)c1cncc(Cl)c1` (some centres unmarked) [I-196]: the DC50 is < 10 nM.

As for `CC(C)(O)c1cc2nc([C@H]3CC[C@H](CN4CC5(CC(CCNc6cccc7c6C(=O)N(C6CCC(=O)NC6=O)C7=O)C5)C4)CC3)[nH]c2cc1NC(=O)c1cccc(C(F)(F)F)n1` (some centres unmarked) [I-14], the DC50 was in the range of 50 to 100 nM.

In the case of `Cn1c(=O)n(C2CCC(=O)NC2=O)c2ccc(C3CCN(C[C@H]4CC[C@H](n5cc6cc(NC(=O)c7cccc(C(F)(F)F)n7)ncc6n5)CC4)CC3)c(Cl)c21` (some centres unmarked) [I-178], the DC50 is > 200 nM.

Consider `COc1cc2nn([C@H]3CC[C@H](CN(C)C4CCN(c5cccc6c5n(C)c(=O)n6C5CCC(=O)NC5=O)CC4)CC3)cc2cc1NC(=O)c1cncc(F)c1` (some centres unmarked) [I-81], for which the DC50 is < 10 nM.

As for `COc1cc2nn([C@H]3CC[C@H](CN4CC=C(c5ccc6c(c5)n(C)c(=O)n6C5CCC(=O)NC5=O)C4)CC3)cc2cc1NC(=O)c1cccc(C(F)(F)F)n1` (some centres unmarked) [I-366], the DC50 is < 10 nM.

Compound `Cn1c(=O)n(C2CCC(=O)NC2=O)c2cccc(C3CCN(C[C@H]4C[C@H](n5cc6cc(NC(=O)c7cccc(C(F)(F)F)n7)c(F)cc6n5)C4)CC3)c21` (some centres unmarked) [I-30] yielded a DC50 of 10 to 50 nM.

Turning to `CN(C[C@H]1CC[C@H](n2cc3cc(NC(=O)c4cccc(C(F)(F)F)n4)c(C(C)(C)O)cc3n2)CC1)C1CCN(c2ccc3c(N4CCC(=O)NC4=O)cncc3c2)CC1` [I-65], the DC50 was < 10 nM.

Consider `COc1ccc2c(c1N1CCN(C[C@H]3CC[C@H](n4cc(-c5cnc(-n6ccc7cc(C#N)cnc76)cc5NC(C)C)nn4)CC3)CC1)n(C)c(=O)n2C1CCC(=O)NC1=O` (some centres unmarked) [I-295], for which the DC50 is 10 to 50 nM.

Regarding `Cc1ccc2c(c1C1CCN(C[C@H]3C[C@H](n4cc5cc(NC(=O)c6cccc(C(F)(F)F)n6)c(Cl)cc5n4)C3)CC1)n(C)c(=O)n2C1CCC(=O)NC1=O` (some centres unmarked) [I-143], the half-maximal degradation concentration (DC50) was 50 to 100 nM.

On to `CC(C)(O)c1cc2nc([C@H]3CC[C@H](CN4CCN(CCNc5cccc6c5C(=O)N(C5CCC(=O)NC5=O)C6=O)CC4)CC3)sc2cc1NC(=O)c1cccc(C#N)n1` (some centres unmarked) [I-441], for which the half-maximal degradation concentration (DC50) was in the range of 10 to 50 nM.

As to `COc1cc2nn([C@H]3CC[C@H](CN4CCN(c5cccc6c(N7CCC(=O)N(C)C7=O)cncc56)CC4)CC3)cc2cc1NC(=O)c1cccc(C(F)(F)F)n1` [I-330], the DC50 was > 200 nM.

With `COc1cc2nn([C@H]3CC[C@H](CN4CCC(c5ccc6c(c5Cl)n(C)c(=O)n6C5CCC(=O)NC5=O)CC4)CC3)cc2cc1NC(=O)c1cccc(C(F)(F)F)n1` (some centres unmarked) [I-177], the DC50 is < 10 nM.

As for `COc1cc2nn([C@H]3CC[C@H](CN4CCC(c5c(C)ccc6c5n(C)c(=O)n6C5CCC(=O)NC5=O)CC4)CC3)cc2cc1NC(=O)c1cncc(Cl)c1` (some centres unmarked) [I-110], the DC50 was < 10 nM.

As to `O=C1CCN(c2cncc3cc(C4CCN(C[C@H]5CC[C@H](n6cc7cc(NC(=O)c8cccc(C(F)(F)F)n8)ncc7n6)CC5)CC4)ccc23)C(=O)N1` [I-318], the DC50 was > 200 nM.

With `COc1cc2nn([C@H]3CC[C@H](CN4CCN(c5c(OC)ccc6c(N7CCC(=O)NC7=O)cncc56)CC4)CC3)cc2cc1NC(=O)c1cccc(C(F)(F)F)n1` [I-332], the DC50 is 10 to 50 nM.

As to `Cc1cccc(C(=O)Nc2cc3sc([C@H]4CC[C@H](CN5C[C@@H]6C[C@H]5CN6CCCNc5cccc6c5C(=O)N(C5CCC(=O)NC5=O)C6=O)CC4)nc3cc2C(C)(C)O)n1` (some centres unmarked) [I-439], the DC50 is 10 to 50 nM.
